In patent US20210324005A1, “Beta-Arrestin Effectors and Compositions and Methods of Use Thereof” (Trevena, Inc., priority 2020, published 2021):

Experiments:
D-Dimer response = experiment: Reduction in IAS and FAS D-Dimer response in patients with COVID-19 infection; format: in vivo, human; details: COVID-19 patients, infused at 12 mg/hr for up to 7 days
Procedure: D-Dimer formation is elevated in patients with ARDS and COVID. A study was performed to determine the ability of TRV027 to reduce the effects of D-Dimer formation. […] Each group was monitored for an IAS D-Dimer response (>30% reduction) and a FAS D-Dimer response (>30% reduction). In the control group, 2/8 patients had greater than a 30% reduction in the IAS D-Dimer response and 1/7 patients had greater than a 30% reduction in the FAS D-Dimer response. […] Therefore, the data illustrates the effect of a peptide as provided for herein can have on the reduction in the D-Dimer response. It is anticipated that the reduction in the D-Dimer response as measured by these assays will lead to clinical benefit in patients that are infected and/or hospitalized with COVID-19.

rat AT1aR = target: T1, rat AT1aR (Rattus norvegicus, UniProt P25095); experiment: PathHunter β-arrestin-2 recruitment assay, rat AT1aR; format: cell-based; details: PathHunter β-arrestin HEK293 cells; inactive = EC50 greater than 10 uM
T1 sequence (P25095 1-359): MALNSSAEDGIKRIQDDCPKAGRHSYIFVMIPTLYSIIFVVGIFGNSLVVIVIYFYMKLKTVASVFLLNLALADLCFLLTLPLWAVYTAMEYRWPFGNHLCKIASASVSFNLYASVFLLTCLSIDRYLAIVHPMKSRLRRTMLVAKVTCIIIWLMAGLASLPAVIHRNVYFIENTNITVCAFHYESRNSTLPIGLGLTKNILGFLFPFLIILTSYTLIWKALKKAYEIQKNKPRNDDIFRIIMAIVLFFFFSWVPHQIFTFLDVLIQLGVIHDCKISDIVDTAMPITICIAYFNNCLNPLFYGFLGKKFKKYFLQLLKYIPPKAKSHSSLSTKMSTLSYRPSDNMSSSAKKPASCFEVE
Procedure: The proximal event in β-arrestin function mediated by GPCRs is recruitment to receptors following ligand binding and receptor phosphorylation by GRK's. Thus, the measure of β-arrestin recruitment was used to determine ligand efficacy for β-arrestin function.
B-arrestin-2 recruitment to the human and rat angiotensin 2 type 1 receptor (human AT1R and rat AT1aR, respectively) was measured with the PathHunter™ β-arrestin assay (DiscoveRx Corporation, Fremont Calif.). Cells, plasmid(s), and detection reagent(s) were purchased from DiscoveRx, and assays were performed per the manufacturer's instructions. Human AT1R and rat AT1aR were cloned into the pCMV-ProLink vector, verified by sequencing, and transfected into PathHunter β-arrestin HEK293 cells. Stably transfected clonal cell lines were selected with Hygromycin and G418. These clonal cell lines were used for all experiments.
For assays, 25,000 cells were seeded per well in 96-well microplates in volumes of 90 μL and allowed to grow overnight at 37° C. in 5% CO2. Peptides provided herein were dissolved in deionized water to a concentration of 1 mM. […] The microplates were then incubated at room temperature for 60 minutes, and then luminescence was measured using a NOVOstar microplate reader purchased from BMG Labtech. B-arrestin-2 recruitment to receptors was measured as relative luminescence intensity expressed in arbitrary units.

[1] = target: T2, human angiotensin 2 type 1 receptor (human, UniProt P30556 1-359); experiment: cell-based or functional assay
T2 sequence (looked up): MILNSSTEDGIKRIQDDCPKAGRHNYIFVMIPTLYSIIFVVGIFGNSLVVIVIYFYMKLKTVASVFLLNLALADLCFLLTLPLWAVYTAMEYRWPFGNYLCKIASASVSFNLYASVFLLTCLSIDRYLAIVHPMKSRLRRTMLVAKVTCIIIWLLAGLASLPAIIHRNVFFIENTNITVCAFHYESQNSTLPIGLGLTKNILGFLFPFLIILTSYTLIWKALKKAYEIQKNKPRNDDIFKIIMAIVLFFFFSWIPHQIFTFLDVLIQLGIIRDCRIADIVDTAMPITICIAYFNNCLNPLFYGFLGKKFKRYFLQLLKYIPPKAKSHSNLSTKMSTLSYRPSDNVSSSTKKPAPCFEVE

[2] = target: T3, rat angiotensin 2 type 1 receptor (rat, UniProt P25095 1-359); experiment: cell-based or functional assay
T3 sequence (looked up): T1 sequence (P25095 1-359)

CC[C@H](C)[C@H](NC(=O)[C@H](Cc1ccc(O)cc1)NC(=O)[C@@H](NC(=O)[C@H](CCCNC(=N)N)NC(=O)CNC)C(C)C)C(=O)N[C@@H](Cc1cnc[nH]1)C(=O)N1CCC[C@H]1C(=O)N[C@H](C)C(=O)O [SEQ ID NO: 27, Sar-Arg-Val-Tyr-Ile-His-Pro-D-Ala-OH]
patients with greater than 30% reduction in the FAS D-Dimer response (D-Dimer response): 4 out of 9
patients with greater than 30% reduction in the IAS D-Dimer response (D-Dimer response): 5 out of 11

CCCCC(=O)N(Cc1ccc(-c2ccccc2-c2nnn[nH]2)cc1)[C@H](C(=O)O)C(C)C [Valsartan]
rat AT1aR b-arrestin2 EC50 (M) (rat AT1aR): inactive

B1: SEQ ID NO: 44 (NMAla-Arg-Val-Tyr-Ile-His-Pro-D-Ala-OH) (peptide)
peptide: ARVYIHPA
modifications: NMAla (N-Methyl-L-alanine) at X1; D-Ala at X8
b-arrestin2 Max (%) [1]: 47.3%
b-arrestin2 Max (%) [2]: 71.9%
